Like-named read-outs stand apart in the source and are kept apart here.
Columns and labels:
Test in all cases: Kinase Profiler, residual kinase activity
Format in all cases: biochemical
[1] = molecular target: DAPK1 (Homo sapiens, UniProt P53355); conditions: read-out: percentage of the remaining kinase activity
Source text: (§1) Kinase Profiler services provided by […]. (http://www.reactionbiology.com) were used to analyze the data of the 9 type-S protein kinase inhibitors against the 40 types of protein kinases.

[2] = molecular target: ALK (Homo sapiens, UniProt Q9UM73); conditions: read-out: percentage of the remaining kinase activity
Source text: as §1

[3] = molecular target: T1, GSG2 (Homo sapiens, UniProt Q8TF76); conditions: read-out: percentage of the remaining kinase activity
T1 sequence (Q8TF76 1-798): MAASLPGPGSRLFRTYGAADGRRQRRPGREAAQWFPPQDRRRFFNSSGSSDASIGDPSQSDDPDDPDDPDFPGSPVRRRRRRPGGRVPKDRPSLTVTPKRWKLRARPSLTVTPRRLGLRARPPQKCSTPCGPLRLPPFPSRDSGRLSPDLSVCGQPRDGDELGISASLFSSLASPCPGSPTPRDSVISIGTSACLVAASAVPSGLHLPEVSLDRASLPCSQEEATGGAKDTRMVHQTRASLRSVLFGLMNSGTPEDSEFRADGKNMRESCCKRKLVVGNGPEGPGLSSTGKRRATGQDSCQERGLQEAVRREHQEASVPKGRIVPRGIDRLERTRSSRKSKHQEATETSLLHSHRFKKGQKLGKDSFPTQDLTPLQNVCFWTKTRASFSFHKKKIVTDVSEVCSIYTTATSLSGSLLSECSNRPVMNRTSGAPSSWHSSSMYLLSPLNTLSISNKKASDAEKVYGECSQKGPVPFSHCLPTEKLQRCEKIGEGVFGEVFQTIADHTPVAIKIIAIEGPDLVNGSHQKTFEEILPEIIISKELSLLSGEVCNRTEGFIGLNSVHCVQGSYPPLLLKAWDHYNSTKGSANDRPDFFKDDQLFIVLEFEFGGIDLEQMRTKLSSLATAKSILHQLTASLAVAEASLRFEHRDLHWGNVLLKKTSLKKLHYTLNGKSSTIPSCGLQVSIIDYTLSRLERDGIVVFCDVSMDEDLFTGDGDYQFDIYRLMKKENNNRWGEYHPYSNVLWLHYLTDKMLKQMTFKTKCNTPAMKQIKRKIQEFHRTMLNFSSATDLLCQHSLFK
Source text: as §1

[4] = molecular target: T2, OXSR1 (Homo sapiens, UniProt O95747); conditions: read-out: percentage of the remaining kinase activity
T2 construct: purchased Research Biology Corp. (http://www.reactionbiology.com)
Source text: as §1

[5] = molecular target: T3, PRKACA (Homo sapiens, UniProt P17612); conditions: read-out: percentage of the remaining kinase activity
T3 construct: purchased Research Biology Corp. (http://www.reactionbiology.com)
Source text: as §1

[6] = molecular target: T4, STK16 (Homo sapiens, UniProt O75716); conditions: read-out: percentage of the remaining kinase activity
T4 construct: purchased Research Biology Corp. (http://www.reactionbiology.com)
Source text: as §1

[7] = molecular target: T5, SRPK1 (Homo sapiens, UniProt Q96SB4); conditions: read-out: percentage of the remaining kinase activity
T5 construct: purchased Research Biology Corp. (http://www.reactionbiology.com)
Source text: as §1

[8] = molecular target: T6, MERTK (Homo sapiens, UniProt Q12866); conditions: read-out: percentage of the remaining kinase activity
T6 sequence (Q12866 21-999): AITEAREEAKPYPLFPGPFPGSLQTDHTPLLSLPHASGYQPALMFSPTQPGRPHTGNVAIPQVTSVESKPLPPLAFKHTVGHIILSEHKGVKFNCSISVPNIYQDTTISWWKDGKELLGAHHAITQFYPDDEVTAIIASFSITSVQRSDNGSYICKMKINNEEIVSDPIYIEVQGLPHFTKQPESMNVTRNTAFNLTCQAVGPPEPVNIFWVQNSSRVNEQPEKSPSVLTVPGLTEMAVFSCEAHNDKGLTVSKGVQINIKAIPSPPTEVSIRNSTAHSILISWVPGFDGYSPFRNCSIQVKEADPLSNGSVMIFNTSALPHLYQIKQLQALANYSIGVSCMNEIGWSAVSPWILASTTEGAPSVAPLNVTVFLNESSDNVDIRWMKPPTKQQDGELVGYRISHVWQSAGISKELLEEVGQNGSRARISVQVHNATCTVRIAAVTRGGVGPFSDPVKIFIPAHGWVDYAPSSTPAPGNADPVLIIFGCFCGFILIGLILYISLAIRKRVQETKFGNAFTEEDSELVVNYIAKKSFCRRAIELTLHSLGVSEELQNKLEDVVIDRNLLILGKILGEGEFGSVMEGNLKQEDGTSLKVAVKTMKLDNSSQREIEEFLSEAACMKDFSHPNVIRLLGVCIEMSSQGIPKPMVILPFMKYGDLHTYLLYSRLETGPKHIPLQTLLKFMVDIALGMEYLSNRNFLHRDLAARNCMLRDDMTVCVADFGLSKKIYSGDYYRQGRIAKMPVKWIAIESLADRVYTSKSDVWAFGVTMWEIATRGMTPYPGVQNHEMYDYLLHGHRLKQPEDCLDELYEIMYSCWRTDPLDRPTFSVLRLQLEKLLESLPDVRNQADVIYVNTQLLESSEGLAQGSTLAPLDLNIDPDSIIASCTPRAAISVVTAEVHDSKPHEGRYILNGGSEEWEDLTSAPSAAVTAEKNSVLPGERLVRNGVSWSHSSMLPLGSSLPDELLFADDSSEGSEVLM
Source text: as §1

[9] = molecular target: PIM1 (Homo sapiens, UniProt P11309); conditions: read-out: percentage of the remaining kinase activity
Source text: as §1

[10] = molecular target: T7, FGFR2 (Homo sapiens, UniProt P21802); conditions: for remaining activity at 0.5 µM: read-out: percentage of the remaining kinase activity
T7 construct: purchased Research Biology Corp. (http://www.reactionbiology.com)
Source text: as §1

[11] = molecular target: T8, EGFR (Homo sapiens, UniProt P00533); conditions: read-out: percentage of the remaining kinase activity
T8 construct: purchased Research Biology Corp. (http://www.reactionbiology.com)
Source text: as §1

[12] = molecular target: T9, MAP2K1 (Homo sapiens, UniProt Q02750); conditions: read-out: percentage of the remaining kinase activity
T9 construct: purchased Research Biology Corp. (http://www.reactionbiology.com)
Source text: as §1

[13] = molecular target: LCK (Homo sapiens, UniProt P06239); conditions: read-out: percentage of the remaining kinase activity

Chain of ALK (Q9UM73 19-1620): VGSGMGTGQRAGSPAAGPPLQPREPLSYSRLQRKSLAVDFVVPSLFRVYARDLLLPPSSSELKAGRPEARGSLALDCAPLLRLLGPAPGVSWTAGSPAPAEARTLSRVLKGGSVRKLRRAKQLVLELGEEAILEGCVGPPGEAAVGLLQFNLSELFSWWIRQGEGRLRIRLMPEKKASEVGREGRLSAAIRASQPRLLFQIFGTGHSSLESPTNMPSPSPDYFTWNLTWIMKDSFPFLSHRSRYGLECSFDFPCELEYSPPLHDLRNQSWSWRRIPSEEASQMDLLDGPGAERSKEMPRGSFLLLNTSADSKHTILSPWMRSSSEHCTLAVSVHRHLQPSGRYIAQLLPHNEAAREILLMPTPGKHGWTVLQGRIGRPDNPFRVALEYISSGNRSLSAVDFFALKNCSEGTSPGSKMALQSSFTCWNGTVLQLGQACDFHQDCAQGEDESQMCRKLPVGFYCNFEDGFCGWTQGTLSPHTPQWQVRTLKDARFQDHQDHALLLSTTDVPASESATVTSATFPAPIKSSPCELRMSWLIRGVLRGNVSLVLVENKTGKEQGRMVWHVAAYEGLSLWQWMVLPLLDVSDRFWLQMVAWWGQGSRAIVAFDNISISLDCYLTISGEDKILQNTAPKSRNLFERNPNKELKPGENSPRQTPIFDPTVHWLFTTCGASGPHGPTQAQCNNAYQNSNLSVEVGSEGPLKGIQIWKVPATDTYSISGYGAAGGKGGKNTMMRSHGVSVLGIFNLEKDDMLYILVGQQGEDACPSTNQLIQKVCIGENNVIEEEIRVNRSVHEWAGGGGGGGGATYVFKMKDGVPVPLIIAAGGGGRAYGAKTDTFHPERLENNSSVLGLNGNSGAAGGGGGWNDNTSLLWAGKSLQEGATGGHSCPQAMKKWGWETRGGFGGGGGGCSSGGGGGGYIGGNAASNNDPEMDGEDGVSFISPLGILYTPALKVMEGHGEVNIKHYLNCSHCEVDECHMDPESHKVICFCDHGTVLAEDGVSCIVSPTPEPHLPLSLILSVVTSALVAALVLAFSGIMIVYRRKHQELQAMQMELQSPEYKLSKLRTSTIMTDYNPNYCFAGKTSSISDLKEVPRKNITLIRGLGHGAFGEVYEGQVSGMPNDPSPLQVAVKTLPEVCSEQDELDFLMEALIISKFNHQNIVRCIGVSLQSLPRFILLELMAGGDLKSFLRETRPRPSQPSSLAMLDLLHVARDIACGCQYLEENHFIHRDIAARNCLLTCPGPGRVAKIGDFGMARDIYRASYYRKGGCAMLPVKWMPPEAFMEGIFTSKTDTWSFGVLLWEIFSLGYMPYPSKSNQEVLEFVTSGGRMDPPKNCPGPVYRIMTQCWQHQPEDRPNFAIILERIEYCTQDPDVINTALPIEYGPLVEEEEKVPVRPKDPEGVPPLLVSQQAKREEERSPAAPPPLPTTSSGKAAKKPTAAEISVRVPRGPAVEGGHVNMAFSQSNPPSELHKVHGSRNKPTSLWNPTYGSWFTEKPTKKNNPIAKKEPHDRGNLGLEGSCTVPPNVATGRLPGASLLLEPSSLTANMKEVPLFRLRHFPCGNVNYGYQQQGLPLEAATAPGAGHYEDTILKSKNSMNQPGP
T2 sequence (O95747 whole entry): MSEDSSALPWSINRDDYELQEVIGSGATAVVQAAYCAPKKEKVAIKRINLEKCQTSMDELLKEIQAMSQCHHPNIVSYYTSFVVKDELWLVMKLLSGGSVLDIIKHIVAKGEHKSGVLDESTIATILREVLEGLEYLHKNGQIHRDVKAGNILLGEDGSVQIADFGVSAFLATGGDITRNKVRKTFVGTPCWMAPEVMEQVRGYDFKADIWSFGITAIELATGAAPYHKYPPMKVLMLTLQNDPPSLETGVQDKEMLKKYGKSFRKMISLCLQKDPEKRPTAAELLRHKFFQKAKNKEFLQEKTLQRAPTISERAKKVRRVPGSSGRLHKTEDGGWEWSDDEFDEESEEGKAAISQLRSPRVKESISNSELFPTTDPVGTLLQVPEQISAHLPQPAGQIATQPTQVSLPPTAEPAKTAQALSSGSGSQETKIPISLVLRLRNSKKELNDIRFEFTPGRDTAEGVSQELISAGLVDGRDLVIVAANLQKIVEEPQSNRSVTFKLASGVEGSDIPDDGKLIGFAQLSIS
T7 sequence (P21802 22-821): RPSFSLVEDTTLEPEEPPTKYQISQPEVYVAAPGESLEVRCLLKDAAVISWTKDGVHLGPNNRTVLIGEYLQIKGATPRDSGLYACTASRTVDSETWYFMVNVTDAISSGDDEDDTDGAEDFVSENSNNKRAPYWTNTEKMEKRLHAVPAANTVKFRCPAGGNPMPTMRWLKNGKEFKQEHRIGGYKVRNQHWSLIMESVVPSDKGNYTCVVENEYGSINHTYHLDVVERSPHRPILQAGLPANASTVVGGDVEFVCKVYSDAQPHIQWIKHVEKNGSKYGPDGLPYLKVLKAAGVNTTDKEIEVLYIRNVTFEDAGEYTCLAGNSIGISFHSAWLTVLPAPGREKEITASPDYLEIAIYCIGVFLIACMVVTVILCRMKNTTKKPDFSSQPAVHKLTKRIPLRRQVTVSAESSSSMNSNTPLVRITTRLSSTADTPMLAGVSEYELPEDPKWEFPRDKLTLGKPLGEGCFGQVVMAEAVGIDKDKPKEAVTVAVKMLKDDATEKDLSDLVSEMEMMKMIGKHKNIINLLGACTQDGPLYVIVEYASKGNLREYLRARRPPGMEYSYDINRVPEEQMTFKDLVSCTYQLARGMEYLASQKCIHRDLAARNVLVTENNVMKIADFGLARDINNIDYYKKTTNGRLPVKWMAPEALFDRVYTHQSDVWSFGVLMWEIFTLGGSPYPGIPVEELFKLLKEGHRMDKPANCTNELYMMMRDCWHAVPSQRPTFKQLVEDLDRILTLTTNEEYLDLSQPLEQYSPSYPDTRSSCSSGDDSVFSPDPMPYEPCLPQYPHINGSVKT
T4 sequence (O75716 whole entry): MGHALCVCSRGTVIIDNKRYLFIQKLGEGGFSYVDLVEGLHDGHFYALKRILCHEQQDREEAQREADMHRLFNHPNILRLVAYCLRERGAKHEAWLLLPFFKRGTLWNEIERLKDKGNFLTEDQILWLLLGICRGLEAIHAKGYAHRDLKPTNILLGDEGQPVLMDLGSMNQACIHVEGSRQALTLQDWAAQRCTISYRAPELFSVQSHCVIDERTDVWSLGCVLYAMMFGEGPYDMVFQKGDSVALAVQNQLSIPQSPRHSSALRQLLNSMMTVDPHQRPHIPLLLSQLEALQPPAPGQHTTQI
Chain of PIM1 (P11309 whole entry): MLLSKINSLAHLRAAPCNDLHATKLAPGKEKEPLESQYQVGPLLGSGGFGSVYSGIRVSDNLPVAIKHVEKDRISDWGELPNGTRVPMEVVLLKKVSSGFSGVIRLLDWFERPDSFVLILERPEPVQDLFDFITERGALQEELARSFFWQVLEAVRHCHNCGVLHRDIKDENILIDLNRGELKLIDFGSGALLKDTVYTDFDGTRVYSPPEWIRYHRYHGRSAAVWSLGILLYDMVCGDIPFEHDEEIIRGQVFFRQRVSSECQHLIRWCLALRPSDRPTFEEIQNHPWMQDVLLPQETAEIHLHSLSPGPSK
Chain of DAPK1 (P53355 whole entry): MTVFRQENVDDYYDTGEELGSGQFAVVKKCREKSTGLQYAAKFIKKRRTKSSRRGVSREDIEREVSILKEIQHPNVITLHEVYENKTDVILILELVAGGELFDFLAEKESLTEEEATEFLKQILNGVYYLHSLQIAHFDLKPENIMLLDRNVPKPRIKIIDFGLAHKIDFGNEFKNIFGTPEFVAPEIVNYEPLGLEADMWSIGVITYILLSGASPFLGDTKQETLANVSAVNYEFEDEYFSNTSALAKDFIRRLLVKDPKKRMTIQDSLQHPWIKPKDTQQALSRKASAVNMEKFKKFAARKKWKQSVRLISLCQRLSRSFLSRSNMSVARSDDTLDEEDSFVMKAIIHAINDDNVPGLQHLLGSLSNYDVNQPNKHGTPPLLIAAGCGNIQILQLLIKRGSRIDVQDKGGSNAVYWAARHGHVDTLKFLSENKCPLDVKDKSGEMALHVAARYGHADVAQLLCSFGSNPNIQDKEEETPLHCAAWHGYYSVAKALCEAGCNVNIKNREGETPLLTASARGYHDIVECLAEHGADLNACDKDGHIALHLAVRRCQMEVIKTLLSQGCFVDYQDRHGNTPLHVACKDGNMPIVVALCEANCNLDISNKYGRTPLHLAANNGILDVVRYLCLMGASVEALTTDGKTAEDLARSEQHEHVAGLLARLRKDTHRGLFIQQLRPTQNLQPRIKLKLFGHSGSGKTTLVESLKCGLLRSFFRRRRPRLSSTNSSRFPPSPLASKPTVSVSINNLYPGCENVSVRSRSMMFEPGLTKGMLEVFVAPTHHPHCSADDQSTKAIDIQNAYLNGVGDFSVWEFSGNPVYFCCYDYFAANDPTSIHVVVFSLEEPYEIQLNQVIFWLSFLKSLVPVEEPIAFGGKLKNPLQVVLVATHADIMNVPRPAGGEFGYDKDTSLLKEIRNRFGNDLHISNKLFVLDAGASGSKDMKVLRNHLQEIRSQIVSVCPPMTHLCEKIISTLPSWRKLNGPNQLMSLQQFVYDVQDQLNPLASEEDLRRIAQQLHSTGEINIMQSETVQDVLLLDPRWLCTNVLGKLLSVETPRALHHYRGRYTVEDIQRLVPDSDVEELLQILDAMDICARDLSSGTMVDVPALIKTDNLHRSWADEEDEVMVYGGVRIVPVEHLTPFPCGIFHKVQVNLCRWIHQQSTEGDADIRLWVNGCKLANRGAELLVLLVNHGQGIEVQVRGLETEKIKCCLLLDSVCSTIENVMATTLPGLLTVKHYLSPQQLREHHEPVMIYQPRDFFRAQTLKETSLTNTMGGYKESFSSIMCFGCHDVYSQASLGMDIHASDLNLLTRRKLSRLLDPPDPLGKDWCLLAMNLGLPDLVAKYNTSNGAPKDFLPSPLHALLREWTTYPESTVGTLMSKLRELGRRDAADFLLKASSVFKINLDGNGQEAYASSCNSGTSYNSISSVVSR

Row | SMILES | remaining activity at 0.5 µM ([1]; DAPK1, inhibitor at 500 nM) | remaining activity at 0.5 µM ([2]; ALK, inhibitor at 500 nM) | remaining activity at 0.5 µM ([3]; GSG2, inhibitor at 500 nM) | remaining activity at 0.5 µM ([4]; OXSR1, inhibitor at 500 nM) | remaining activity at 0.5 µM ([5]; PRKACA, inhibitor at 500 nM) | remaining activity at 0.5 µM ([6]; STK16, inhibitor at 500 nM) | remaining activity at 0.5 µM ([7]; SRPK1, inhibitor at 500 nM) | remaining activity at 0.5 µM ([8]; MERTK, inhibitor at 500 nM) | remaining activity at 0.5 µM ([9]; PIM1, inhibitor at 500 nM) | remaining activity at 0.5 µM ([10]; FGFR2, inhibitor at 500 nM) | remaining activity at 0.5 µM ([11]; EGFR, inhibitor at 500 nM) | remaining activity at 0.5 µM ([12]; MAP2K1, inhibitor at 500 nM) | remaining activity at 0.5 µM ([13]; LCK, inhibitor at 500 nM) | also measured
1 | CN[C@@H]1C[C@H]2O[C@@](C)([C@@H]1OC)n1c3ccccc3c3c4c(c5c6ccccc6n2c5c31)C(=O)NC4 [STU, staurosporine, reference compound] | – | – | 9% | – | – | – | 17.7% | – | – | – | – | 11.5% | – | remaining activity at 0.5 µM [1]: 1.9%; remaining activity at 0.5 µM [2]: -0.3%; remaining activity at 0.5 µM [4]: 15.8%; remaining activity at 0.5 µM [6]: 52.5%; remaining activity at 0.5 µM [8]: 1.1%; remaining activity at 0.5 µM [9]: 0.6%
2 | COC1C(N(C)CCOc2cccc([N+](=O)[O-])c2)CC2OC1(C)n1c3ccccc3c3c4c(c5c6ccccc6n2c5c31)C(=O)NC4 (stereo not drawn) [Compound 8] | – | – | – | – | – | – | – | – | – | – | – | – | – | remaining activity at 0.5 µM [1]: 89.8%; remaining activity at 0.5 µM [2]: 19.5%; remaining activity at 0.5 µM [3]: 89.8%; remaining activity at 0.5 µM [4]: 102%; remaining activity at 0.5 µM [5]: 26.4%; remaining activity at 0.5 µM [6]: 94%; remaining activity at 0.5 µM [7]: 78.3%; remaining activity at 0.5 µM [8]: 63.1%; remaining activity at 0.5 µM [9]: 24.6%; remaining activity at 0.5 µM [10]: 31.4%; remaining activity at 0.5 µM [11]: 102%; remaining activity at 0.5 µM [12]: 72%; remaining activity at 0.5 µM [13]: 24%
3 | COC1C(N(C)C(=O)C(N)Cc2cn(C(=O)OC(C)(C)C)c3ccccc23)CC2OC1(C)n1c3ccccc3c3c4c(c5c6ccccc6n2c5c31)C(=O)NC4 (stereo not drawn) [Compound 2] | 107% | 85.4% | 110% | 116% | 81.1% | 105% | 95.7% | 96.8% | 88.9% | 88.4% | 110% | 105% | 97% | –
4 | COC1C(N(C)C(=O)C(N)Cc2c[nH]cn2)CC2OC1(C)n1c3ccccc3c3c4c(c5c6ccccc6n2c5c31)C(=O)NC4 (stereo not drawn) [Compound 1] | 26% | 3.3% | 69.9% | 106% | 13.9% | 59% | 24.4% | 26.7% | 2.4% | 9.8% | 30.5% | 79.8% | 2.1% | –

Second part, led by results:

Row | remaining activity at 0.5 µM ([1]; DAPK1, inhibitor at 500 nM) | remaining activity at 0.5 µM ([2]; ALK, inhibitor at 500 nM) | remaining activity at 0.5 µM ([3]; GSG2, inhibitor at 500 nM) | remaining activity at 0.5 µM ([4]; OXSR1, inhibitor at 500 nM) | remaining activity at 0.5 µM ([5]; PRKACA, inhibitor at 500 nM) | remaining activity at 0.5 µM ([6]; STK16, inhibitor at 500 nM) | remaining activity at 0.5 µM ([7]; SRPK1, inhibitor at 500 nM) | remaining activity at 0.5 µM ([8]; MERTK, inhibitor at 500 nM) | remaining activity at 0.5 µM ([9]; PIM1, inhibitor at 500 nM) | remaining activity at 0.5 µM ([10]; FGFR2, inhibitor at 500 nM) | remaining activity at 0.5 µM ([11]; EGFR, inhibitor at 500 nM) | remaining activity at 0.5 µM ([12]; MAP2K1, inhibitor at 500 nM) | remaining activity at 0.5 µM ([13]; LCK, inhibitor at 500 nM) | SMILES | also measured
5 | 116% | 17.6% | 87.8% | 94.7% | 24.6% | 103% | 78.5% | 52.3% | 21.8% | 26.5% | 96.2% | 66.1% | 14% | COC1C(N(C)Cc2ccc(-c3ccccc3)cc2)CC2OC1(C)n1c3ccccc3c3c4c(c5c6ccccc6n2c5c31)C(=O)NC4 (stereo not drawn) [Compound 9] | –
6 | 96.4% | 56.7% | 102% | 110% | 38.3% | 99.8% | 85% | 88.1% | 44.2% | 43.2% | 108% | 110% | 68.8% | COC1C(N(C)C(=O)C(N)Cc2ccc(OC(C)(C)C)cc2)CC2OC1(C)n1c3ccccc3c3c4c(c5c6ccccc6n2c5c31)C(=O)NC4 (stereo not drawn) [Compound 4] | inhibitory effect on FGFR2 ([10]; in words): had an inhibitory effect on FGFR2
7 | 101% | 44.7% | 88% | 111% | 40.8% | 94% | 65.3% | 85.2% | 43% | 26.5% | 108% | 101% | 44% | COC1C(N(C)C(=O)C(N)CCC(=O)OC(C)(C)C)CC2OC1(C)n1c3ccccc3c3c4c(c5c6ccccc6n2c5c31)C(=O)NC4 (stereo not drawn) [Compound 6] | –
8 | 26.2% | 4.7% | 69.9% | 100% | 18.6% | 51.6% | 38.9% | 40% | 2.5% | 9.2% | 82.2% | 74.1% | 3% | COC1C(N(C)C(=O)C(N)CCC(=O)O)CC2OC1(C)n1c3ccccc3c3c4c(c5c6ccccc6n2c5c31)C(=O)NC4 (stereo not drawn) [Compound 7] | –
9 | 105% | 29.1% | 89.5% | 109% | 32.6% | 86.7% | 61.1% | 69.2% | 3% | 21.7% | 93.1% | 103% | 11.5% | COC1C(N(C)C(=O)C(N)Cc2ccc(O)cc2)CC2OC1(C)n1c3ccccc3c3c4c(c5c6ccccc6n2c5c31)C(=O)NC4 (stereo not drawn) [Compound 5] | –

Reference: patent US9738660B2, “Selective inhibitors for protein kinases and pharmaceutical composition and use thereof” (National Chiao Tung University, priority 2014, dated 2017)
